Source: US12410164B2, “Heterocyclic compounds and medical use thereof” (FONDAZIONE TELETHON, priority 2018, dated 2025)

The molecules below were run against F508del-CFTR (Homo sapiens, UniProt P13569, DEL508-508) (assay: HS-YFP kinetic fluorescence (iodide quenching rate) assay in CFBE41o− cells). Settings: Table 1; compound at 10 μM plus VX-809; (QRTOT − QRVX)/QRVX, HS-YFP assay.
Assay type: cell-based
Parameters: expressed in transfected cells; host or cells: CFBE41o- cells with expression of F508del-CFTR and HS-YFP (generated as in Sondo et al. 2011)
Experimental: CFBE41o- cells, with expression of F508del-CFTR and halogen-sensitive fluorescent protein, were generated as previously described (Sondo E, et al. Am J Physiol. 2011, 301, […]-[…]). For the test, the cells were seeded in 96-well microplates using a culture medium consisting of DMEM and Ham's F12 (1:1) supplemented with 10% foetal bovine serum. After 24 hours from seeding, the cells were treated for another 24 hours with the test compounds dissolved in the culture medium at the desired concentrations. As a negative control, the solvent of the compounds (dimethyl sulfoxide, DMSO) dissolved in the medium with the same dilution ratio (final percentage of DMSO:0.1-0.2%) was used. As a positive control, the corrector VX-809 (Selleck Chemicals, […]) was used at a concentration of 1 μM. After treatment, the medium with the compounds was removed and the cells were stimulated with forskolin (Sigma-Aldrich, F6886) 20 μM plus genistein (Sigma-Aldrich, G6649) 50 μM (in 60 μl of PBS saline) to maximally activate the CFTR channels present in the membrane. In a microplate reader (FLUOstar-Omega, BMG) the fluorescence of the cells in each well was read for 14 seconds, with an injection of 165 μl of a iodide-enriched saline (modified PBS where NaCl, 137 mM, has been replaced with the same concentration of NaI). The iodide transport activity in each well was evaluated by subtraction of the background fluorescence (measured in a well without cells), subsequent normalization with respect to the initial fluorescence and finally by interpolation of the fluorescence quenching phase with an exponential function that allows the derivation of the maximum slope (quenching rate, QR). The activity of the synthesized compounds was initially evaluated on the CFBE41o- cell line with expression of the mutated F508del-CFTR protein described above (Sondo E, et al. Am J Physiol. 2011, 301, […]-[…]). For this purpose, a functional assay based on the fluorescent YFP protein sensitive to halides, HS-YFP, was used (Galietta L J, et al. J Biol Chem. 2001, 276, 19723-19728). The fluorescence of the HS-YFP protein is turned off by iodide. Therefore, if exposed to a solution containing iodide, cells with HS-YFP expression show a quenching speed of the fluorescence which depends on the presence and activity of anionic channels. Under control conditions, the mutated CFTR protein presents a serious defect of stability and maturation, so it remains trapped in the endoplasmic reticulum not reaching the cell surface in enough quantity. In the HS-YFP-based assay, this defect results in a low anion transport capacity and therefore in a low quenching rate (QR). Treatment for a prolonged time (e.g. 24 hours) with a corrector determines an improvement in protein maturation with an increase in the number of CFTR channels present in the membrane and therefore an increase in the flux of iodide and QR. In a first phase, the authors screened about 200 heterocyclic molecules with various nitrogenated tricyclic scaffolds. Conditions previously described have been used for screening (Sondo E, et al. Am J Physiol. 2011, 301, […]-[…]) and reported herein in the Materials and Methods section. A threshold equal to the average value plus three times the standard deviation of the QR of wells without compounds (only DMSO in the culture medium) was used as a criterion for the selection of active compounds.

Chain of F508del-CFTR (P13569 with tags, fused parts or gaps DEL508-508): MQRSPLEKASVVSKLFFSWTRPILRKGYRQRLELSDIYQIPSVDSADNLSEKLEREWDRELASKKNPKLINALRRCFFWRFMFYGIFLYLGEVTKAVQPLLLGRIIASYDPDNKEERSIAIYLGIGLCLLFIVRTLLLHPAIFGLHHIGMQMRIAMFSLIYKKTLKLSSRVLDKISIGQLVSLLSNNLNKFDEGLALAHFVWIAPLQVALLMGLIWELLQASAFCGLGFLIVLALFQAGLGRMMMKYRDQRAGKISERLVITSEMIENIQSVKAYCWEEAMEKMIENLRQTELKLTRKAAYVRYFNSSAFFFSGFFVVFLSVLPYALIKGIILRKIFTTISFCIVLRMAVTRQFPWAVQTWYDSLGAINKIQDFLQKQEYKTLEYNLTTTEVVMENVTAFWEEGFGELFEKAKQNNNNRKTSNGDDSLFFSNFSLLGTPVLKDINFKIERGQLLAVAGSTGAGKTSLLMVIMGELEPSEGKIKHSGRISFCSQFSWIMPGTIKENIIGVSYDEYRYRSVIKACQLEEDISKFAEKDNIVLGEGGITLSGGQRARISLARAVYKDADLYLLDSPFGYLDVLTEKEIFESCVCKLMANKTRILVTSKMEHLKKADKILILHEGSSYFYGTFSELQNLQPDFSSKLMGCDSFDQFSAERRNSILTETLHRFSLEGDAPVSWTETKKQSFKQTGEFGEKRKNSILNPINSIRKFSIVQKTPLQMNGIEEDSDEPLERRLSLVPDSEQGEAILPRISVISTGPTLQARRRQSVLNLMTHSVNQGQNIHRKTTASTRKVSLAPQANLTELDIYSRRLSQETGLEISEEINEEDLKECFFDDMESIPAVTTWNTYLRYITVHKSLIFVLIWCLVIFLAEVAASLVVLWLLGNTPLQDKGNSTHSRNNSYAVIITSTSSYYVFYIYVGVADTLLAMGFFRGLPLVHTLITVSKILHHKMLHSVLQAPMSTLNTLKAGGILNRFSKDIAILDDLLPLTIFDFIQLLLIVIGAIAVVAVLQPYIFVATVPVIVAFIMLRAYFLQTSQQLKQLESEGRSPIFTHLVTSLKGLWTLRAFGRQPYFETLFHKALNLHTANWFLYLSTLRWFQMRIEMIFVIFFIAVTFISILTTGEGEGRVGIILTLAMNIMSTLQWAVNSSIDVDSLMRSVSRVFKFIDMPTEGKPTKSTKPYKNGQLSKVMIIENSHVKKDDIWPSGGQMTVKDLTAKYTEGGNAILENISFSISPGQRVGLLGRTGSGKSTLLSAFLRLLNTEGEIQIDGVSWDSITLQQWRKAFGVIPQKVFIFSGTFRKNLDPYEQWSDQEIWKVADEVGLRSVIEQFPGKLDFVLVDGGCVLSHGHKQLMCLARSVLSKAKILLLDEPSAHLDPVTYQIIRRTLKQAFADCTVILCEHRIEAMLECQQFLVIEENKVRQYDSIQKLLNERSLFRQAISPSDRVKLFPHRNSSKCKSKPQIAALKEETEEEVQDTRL

| SMILES | AI (%) additivity index |
| --- | --- |
| Cc1cccc(Cn2c(C(=O)NC(C)C)cc3c2-c2[nH]c(=O)c(S(=O)(=O)c4ccccc4)cc2CC3)c1 [PP083, 7-(Benzenesulfonyl)-1-[(3-methylphenyl)methyl]-8-oxo-N-(propan-2-yl)-4,5,8,9-tetrahydro-1H-pyrrolo[3,2-h]quinoline-2-carboxamide] | 53% |
| Cc1cccc(Cn2c(C(=O)NC3CC3)cc3c2-c2[nH]c(=O)c(S(=O)(=O)c4ccccc4)cc2CC3)c1 [PP084, 7-(Benzenesulfonyl)-N-cyclopropyl-1-[(3-methylphenyl)methyl]-8-oxo-4,5,8,9-tetrahydro-1H-pyrrolo[3,2-h]quinoline-2-carboxamide] | 10% |
| Cc1ccc(Cn2c(C(=O)NC(C)C)c(Br)c3c2-c2[nH]c(=O)c(S(=O)(=O)c4ccccc4)cc2CC3)cc1 [PP086, 7-(Benzenesulfonyl)-3-bromo-1-[(4-methylphenyl)methyl]-8-oxo-N-(propan-2-yl)-4,5,8,9-tetrahydro-1H-pyrrolo[3,2-h]quinoline-2-carboxamide] | 116% |
| Cc1cccc(Cn2c(C(=O)O)cc3c2-c2[nH]c(=O)c(S(=O)(=O)c4ccccc4)cc2CC3)c1 [PP090, 7-(Benzenesulfonyl)-1-[(3-methylphenyl)methyl]-8-oxo-4,5,8,9-tetrahydro-1H-pyrrolo[3,2-h]quinoline-2-carboxylic acid] | 36% |
| Cc1cccc(Cn2c(C(N)=O)cc3c2-c2[nH]c(=O)c(S(=O)(=O)c4ccccc4)cc2CC3)c1 [PP093, 7-(Benzenesulfonyl)-1-[(3-methylphenyl)methyl]-8-oxo-4,5,8,9-tetrahydro-1H-pyrrolo[3,2-h]quinoline-2-carboxamide] | 25% |
| Cc1ccc(Cn2c(C(=O)O)c(Br)c3c2-c2[nH]c(=O)c(S(=O)(=O)c4ccccc4)cc2CC3)cc1C [PP095, 7-(Benzenesulfonyl)-3-bromo-1-[(3,4-dimethylphenyl)methyl]-8-oxo-4,5,8,9-tetrahydro-1H-pyrrolo[3,2-h]quinoline-2-carboxylic acid] | 11% |
| CC(C)NC(=O)c1cc2c(n1Cc1ccc(Br)cc1)-c1[nH]c(=O)c(S(=O)(=O)c3ccccc3)cc1CC2 [PP096, 7-(Benzenesulfonyl)-1-[(4-bromophenyl)methyl]-8-oxo-N-(propan-2-yl)-4,5,8,9-tetrahydro-1H-pyrrolo[3,2-h]quinoline-2-carboxamide] | 3% |
| CC(C)NC(=O)c1c(Br)c2c(n1Cc1ccc(Br)cc1)-c1[nH]c(=O)c(S(=O)(=O)c3ccccc3)cc1CC2 [PP097, 7-(Benzenesulfonyl)-3-bromo-1-[(4-bromophenyl)methyl]-8-oxo-N-(propan-2-yl)-4,5,8,9-tetrahydro-1H-pyrrolo[3,2-h]quinoline-2-carboxamide] | 99% |
| O=C(NC1CC1)c1cc2c(n1Cc1ccc(Br)cc1)-c1[nH]c(=O)c(S(=O)(=O)c3ccccc3)cc1CC2 [PP098, 7-(Benzenesulfonyl)-1-[(4-bromophenyl)methyl]-N-cyclopropyl-8-oxo-4,5,8,9-tetrahydro-1H-pyrrolo[3,2-h]quinoline-2-carboxamide] | 4% |
| O=C(NC1CC1)c1c(Br)c2c(n1Cc1ccc(Br)cc1)-c1[nH]c(=O)c(S(=O)(=O)c3ccccc3)cc1CC2 [PP099, 7-(Benzenesulfonyl)-3-bromo-1-[(4-bromophenyl)methyl]-N-cyclopropyl-8-oxo-4,5,8,9-tetrahydro-1H-pyrrolo[3,2-h]quinoline-2-carboxamide] | 82% |
| Cc1cccc(Cn2c(C(=O)NS(=O)(=O)c3ccccc3)c(Br)c3c2-c2[nH]c(=O)c(S(=O)(=O)c4ccccc4)cc2CC3)c1 [PP100, N,7-di(benzenesulfonyl)-3-bromo-1-[(3-methylphenyl)methyl]-8-oxo-4,5,8,9-tetrahydro-1H-pyrrolo[3,2-h]quinoline-2-carboxamide] | 47% |
| Cc1cccc(Cn2c(C(=O)NC(C)(C)C)c(Br)c3c2-c2[nH]c(=O)c(S(=O)(=O)c4ccccc4)cc2CC3)c1 [PP101, 7-(Benzenesulfonyl)-3-bromo-N-tert-butyl-1-[(3-methylphenyl)methyl]-8-oxo-4,5,8,9-tetrahydro-1H-pyrrolo[3,2-h]quinoline-2-carboxamide] | 249% |
| Cc1cccc(Cn2c(C(=O)Nc3cc(C(C)(C)C)on3)c(Br)c3c2-c2[nH]c(=O)c(S(=O)(=O)c4ccccc4)cc2CC3)c1 [PP102, 7-(Benzenesulfonyl)-3-bromo-N-(5-tert-butyl-1,2-oxazol-3-yl)-1-[(3-methylphenyl)methyl]-8-oxo-4,5,8,9-tetrahydro-1H-pyrrolo[3,2-h]quinoline-2-carboxamide] | 103% |
| Cc1cccc(Cn2c(C(=O)OC(C)C)cc3c2-c2[nH]c(=O)c(S(=O)(=O)c4ccccc4)cc2CC3)c1 [PP103, Propan-2-yl 7-(benzenesulfonyl)-1-[(3-methylphenyl)methyl]-8-oxo-4,5,8,9-tetrahydro-1H-pyrrolo[3,2-h]quinoline-2-carboxylate] | 284% |
| Cc1cccc(Cn2c(C(=O)OC(C)C)c(Br)c3c2-c2[nH]c(=O)c(S(=O)(=O)c4ccccc4)cc2CC3)c1 [PP104, Propan-2-yl 7-(benzenesulfonyl)-3-bromo-1-[(3-methylphenyl)methyl]-8-oxo-4,5,8,9-tetrahydro-1H-pyrrolo[3,2-h]quinoline-2-carboxylate] | 374% |

Other lines, results leading:

| AI (%) additivity index | SMILES |
| --- | --- |
| 20% | Cc1cccc(Cn2c(C(=O)O)c(Br)c3c2-c2[nH]c(=O)c(S(=O)(=O)c4ccccc4)cc2CC3)c1 [PP081, 7-(Benzenesulfonyl)-3-bromo-1-[(3-methylphenyl)methyl]-8-oxo-4,5,8,9-tetrahydro-1H-pyrrolo[3,2-h]quinoline-2-carboxylic acid] |
| 31% | Cc1cccc(Cn2c(C(N)=O)cc3c2-c2[nH]c(=O)c(S(=O)(=O)c4ccccc4)cc2CC3)c1 [PP082, 7-(Benzenesulfonyl)-1-[(3-methylphenyl)methyl]-8-oxo-4,5,8,9-tetrahydro-1H-pyrrolo[3,2-h]quinoline-2-carboxamide] |
| 11% | Cc1ccc(Cn2c(C(N)=O)c(Br)c3c2-c2[nH]c(=O)c(S(=O)(=O)c4ccccc4)cc2CC3)cc1 [PP089, 7-(Benzenesulfonyl)-3-bromo-1-[(4-methylphenyl)methyl]-8-oxo-4,5,8,9-tetrahydro-1H-pyrrolo[3,2-h]quinoline-2-carboxamide] |
| 208% | Cc1cccc(Cn2c(C(=O)NC(C)C)c(Br)c3c2-c2[nH]c(=O)c(S(=O)(=O)c4ccccc4)cc2CC3)c1 [PP091, 7-(Benzenesulfonyl)-3-bromo-1-[(3-methylphenyl)methyl]-8-oxo-N-(propan-2-yl)-4,5,8,9-tetrahydro-1H-pyrrolo[3,2-h]quinoline-2-carboxamide] |
| 52% | Cc1cccc(Cn2c(C(=O)NC3CC3)cc3c2-c2[nH]c(=O)c(S(=O)(=O)c4ccccc4)cc2CC3)c1 [PP092, 7-(Benzenesulfonyl)-N-cyclopropyl-1-[(3-methylphenyl)methyl]-8-oxo-4,5,8,9-tetrahydro-1H-pyrrolo[3,2-h]quinoline-2-carboxamide] |
| 47% | Cc1ccc(Cn2c(C(=O)O)cc3c2-c2[nH]c(=O)c(S(=O)(=O)c4ccccc4)cc2CC3)cc1C [PP094, 7-(Benzenesulfonyl)-1-[(3,4-dimethylphenyl)methyl]-8-oxo-4,5,8,9-tetrahydro-1H-pyrrolo[3,2-h]quinoline-2-carboxylic acid] |
| 174% | CC(C)OC(=O)c1cc2c(n1CC1CC1)-c1[nH]c(=O)c(S(=O)(=O)c3ccccc3)cc1CC2 [PP105, Propan-2-yl 7-(benzenesulfonyl)-1-(cyclopropylmethyl)-8-oxo-4,5,8,9-tetrahydro-1H-pyrrolo[3,2-h]quinoline-2-carboxylate] |
